# Laboratory results taken from US9265739B2, “Methods and use of compounds that bind to HER2/neu receptor complex” (The Trustees Of The University Of Pennsylvania, priority 2010, dated 2016).
# How the values were obtained:
# T6-17 cells [1] = test: Soft agar colony growth screening, T6-17 cells; type: cell-based, murine; conditions: soft agar colonies counted on day 21, relative to DMSO control, p<0.05, FIG. 1/2
# Method: (§1) Targeted molecules were screened in vitro for anti-tumor activity using a modified […] growth of transformed cell assay, as described in Fukazawa et al. (1995), Anal. Biochem., 10:83-90. Anchorage-independent growth capability is perhaps the best indicator of the malignant phenotype and is determined by efficiency of cells to form colonies in soft agar (Drebin, et al., Cell 41, 697-706 (1985)). All experiments were conducted in 6 cm dishes in triplicate. Agar bottom layers consisted of 3 ml 0.25% agarose/DMEM (Dulbecco's Modified Eagle Medium) supplemented with 10% FBS (Fetal Bovine Serum), 2 mM L-glutamine, and 100 u/ml Penicillin/1 μg/ml Streptomycin. About 1000-2000 cells T6-17/SK-BR-3 are layered on the top in 1 ml 0.18% agarose/DMEM, 10% FBS, 2 mM L-glutamine, and 100 μ/ml Penicillin/1 μg/ml Streptomycin. Cultures were treated every 3 days with 0.5 ml of supplemented DMEM containing measured amounts of the Her2 inhibitors, or DMSO (dimethyl sulfoxide) alone. On the day before the colonies were counted, the samples were incubated with 1 ml of Hank's Balanced Salt Solution containing 1 mg/ml p-iodonitrotetrazolium violet (INT, Sigma) to stain colonies. The next day, colonies were counted using a 7× achromatic magnifying eyepiece (Bausch and Lomb). Triplicate cultures were counted on day 21 and will be verified by at least two different persons. […]
# SK-BR-3 cells = test: Soft agar colony growth screening, SK-BR-3 cells; type: cell-based; conditions: soft agar colonies counted on day 21, relative to DMSO control, p<0.05, FIG. 1/2
# Method: as §1
# T6-17 cells [2] = test: MTT cell proliferation assay, T6-17 cells; type: cell-based, murine; conditions: indicated doses, three days, FIG. 3
# Excerpt: (§2) The activity of S22-57 in cell proliferation assays using different cell lines was examined. T6-17 is a murine cell line engineered to express human HER2/neu. […] HBL100 is an immortalized human breast cancer cell line. XHT-1-1A are mouse NIH3T3 cells transformed by Harvey-RAS (XHT-1-1a) previously developed and used (Drebin, et al., Cell 41, 697-706 (1985)). Both HBL100 and XHT-1-1A are used as controls. To measure cell proliferation, we used the modified 3-[4,5-dimethylthiazol-2-yl]-2,5-diphenyl tetrazolium bromide (MTT) assay as previously described (Masuda, et al., Oncogene 25, 7740-7746 (2006)). Cells (2000-5000 cells/well) were seeded in 96-well plates in the presence of inhibitors with different concentration and incubated at 37° C. in a humidified 5% CO2 atmosphere. After 72 h, cells were incubated in fresh medium for another 4 hours before a total of 25 μl of MTT solution (5 mg/ml in PBS) was added to each well, and after 2 h of incubation at 37° C., 100 μl of the extraction buffer (20% w/v SDS, 50% N,N-dimethyl formamide, pH 4.7) was added. After an overnight incubation at 37° C., the optical density at 570 nm was measured using a Tecan ELISA reader. […] Proliferation of cells was measured by the MTT assay.
# HC1 cells = test: MTT cell proliferation assay, HC1 cells; type: cell-based, human; conditions: indicated doses, three days, FIG. 3
# Excerpt: as §2
# [3] = tested on: HER2 (phosphorylation at Y877); test: Inhibition of HER2 phosphorylation in HC1 cells (western blot); type: cell-based, human; conditions: serum-starved HC1 cells, inhibitor 1 hour, EGF 50 ng/ml 10 minutes, FIG. 4
# Method: The effect of S22-57 was also examined in the cetuximab-resistant non-small cell lung cancer cell line HC1. Confluent HC1 cells were first serum starved for 24 hours before exposed to inhibitors as indicated for 1 hour. Cells were then stimulated by EGF (50 ng/ml) for 10 minutes. […] Both antibodies were purchased from Cell Signaling.
structure (smiles),measurement,setting,value
O=C(CCc1cc(C(F)(F)F)cc(C(F)(F)F)c1)NN/C=C1\C=C(Cl)C=C(Cl)C1=O [S22-57],effect on T6-17 cell proliferation (colony growth in culture),T6-17 cells [1],reduced cellular growth in culture relative to DMSO control
same,effect on SK-BR-3 cell proliferation (colony growth in culture),SK-BR-3 cells,reduced cellular growth in culture relative to DMSO control
same,inhibition of proliferation of T6-17 cells,T6-17 cells [2],inhibited T6-17 and HC1 dose-dependently
same,inhibition of proliferation of HC1 cells,HC1 cells,inhibited T6-17 and HC1 dose-dependently
same,EGF-stimulated phosphorylation of HER2 at Y877,[3],inhibited
